Experimental data: article PMC10818824, “In Vitro and In Silico Analysis of the Bindings between Legacy and Novel Per- and Polyfluoroalkyl Substances and Human Serum Albumin” (Toxics, 2024)

Each molecule was assayed against T1, HSA (human serum albumin) (Homo sapiens, UniProt P02768) (assay: intrinsic fluorescence quenching, double-log fit). Details: Tris-HCl pH 7.4, room temperature, 30 min, ex 275 nm; ethanol stocks; KA unit not given.
T1 construct: gene ALB; mature single chain of 585 residues, N-terminal Asp, C-terminal Leu; untagged; monomer
Assay type: binding
Parameters: unit not given here
From the text: intrinsic fluorescence quenching, double-log fit on HSA (human serum albumin)

T1 sequence (P02768 25-609): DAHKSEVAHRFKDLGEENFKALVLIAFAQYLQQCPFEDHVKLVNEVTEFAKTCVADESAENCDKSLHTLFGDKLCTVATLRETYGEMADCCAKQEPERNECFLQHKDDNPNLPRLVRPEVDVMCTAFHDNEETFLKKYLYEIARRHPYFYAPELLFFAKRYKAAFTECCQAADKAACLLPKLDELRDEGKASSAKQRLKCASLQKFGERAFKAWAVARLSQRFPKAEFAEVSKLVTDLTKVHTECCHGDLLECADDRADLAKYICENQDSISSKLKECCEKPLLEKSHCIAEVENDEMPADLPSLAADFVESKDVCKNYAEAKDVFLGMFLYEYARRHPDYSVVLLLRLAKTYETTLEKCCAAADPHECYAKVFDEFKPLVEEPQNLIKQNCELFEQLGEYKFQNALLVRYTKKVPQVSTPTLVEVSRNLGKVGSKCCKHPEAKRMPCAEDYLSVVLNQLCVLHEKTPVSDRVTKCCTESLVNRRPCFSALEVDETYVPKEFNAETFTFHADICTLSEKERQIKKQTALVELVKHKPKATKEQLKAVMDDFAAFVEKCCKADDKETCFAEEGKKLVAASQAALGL

SMILES | Binding Constant KA
O=S(=O)(O)C(F)(F)C(F)(F)C(F)(F)C(F)(F)C(F)(F)C(F)(F)C(F)(F)C(F)(F)F [PFOS] | 394.639
O=S(=O)(O)C(F)(F)C(F)(F)C(F)(F)F [PFPrS] | 79.4511
O=C(O)C(F)(F)C(F)(F)C(F)(F)F [PFBA] | 20.3657
O=S(=O)(O)C(F)(F)C(F)(F)OC(F)(F)C(F)(F)C(F)(F)C(F)(F)C(F)(F)C(F)(F)C(F)(F)C(F)(F)Cl [11Cl-PF3OUdS, 11–chloroeicosafluoro–3–oxaundecane–1–sulfonic acid] | 127.6145
O=S(=O)(O)C(F)(F)C(F)(F)C(F)(F)C(F)(F)F [PFBS] | 116.4930
O=S(=O)(O)C(F)(F)C(F)(F)OC(F)(F)C(F)(F)C(F)(F)C(F)(F)C(F)(F)C(F)(F)Cl [9Cl-PF3ONS, 9–chlorohexadecafluoro–3–oxanone–1–sulfonic acid] | 117.112
O=C(O)C(F)(F)C(F)OC(F)(F)C(F)(F)C(F)(F)OC(F)(F)F (centres unmarked) [NaDONA, sodium dodecafluoro-3H–4,8–dioxanonanoate] | 93.0894
O=S(=O)(O)C(F)(F)C(F)(F)C(F)(F)C(F)(F)C(F)(F)C(F)(F)F [PFHxS] | 157.9429
